Results from US9480251B2, “Insecticidal compositions and method for insect control” (FMC Corporation, priority 2010, dated 2016).

Key:
Format in all cases: in vivo
[1] = system: green peach aphid (Myzus persicae); experiment: Spray to runoff of infested bell pepper plant, green peach aphid; conditions: infested bell pepper plant sprayed until runoff
Method: (§1) Formulations of geraniol, cedar oil and mixtures thereof were evaluated for contact toxicity against the Lasius ant (Lasius niger), lady beetle (Harmonia axyridis), brown stink bug (Halyomorpha halys), green peach aphid (Myzus persicae), house cricket (Acheta domesticus) and […] bug (Pseudococcus longispinus). […] Each test solution was poured into a 16 ounce spray can, a valve was installed and the can was charged with carbon dioxide as the propellant. Direct spraying of the test substance onto insects was performed to determine the efficacy of each test solution as follows: Green peach aphid test-In separate tests, a bell pepper plant, infested with green peach aphids, was sprayed with the appropriate test solution until runoff.

[2] = system: brown stink bug (Halyomorpha halys); experiment: Direct spray contact toxicity, brown stink bug; conditions: ten insects on concrete slab, directly sprayed for 2 seconds
Method: as §1, with “Brown stink bug and house cricket” for “Green peach aphid”, “tests, ten insects of each species were placed onto” for “tests,”, “concrete slab and directly” for “bell pepper plant, infested with green peach aphids, was”, “sprayed for 2 seconds” for “sprayed”, “solutions.” for “solution until runoff.”

[3] = system: Lasius ant (Lasius niger); experiment: Direct spray contact toxicity, Lasius ant; conditions: ten insects on asphalt slab, directly sprayed for 2 seconds
Method: as §1, with “Lasius ant and lady beetle” for “Green peach aphid”, “ten insects of each species were placed onto an asphalt slab and directly” for “a bell pepper plant, infested with green peach aphids, was”, “sprayed for 2 seconds” for “sprayed”, “solutions.” for “solution until runoff.”

[4] = system: lady beetle (Harmonia axyridis); experiment: Direct spray contact toxicity, lady beetle; conditions: ten insects on asphalt slab, directly sprayed for 2 seconds
Method: as §1, with “Lasius ant and lady beetle” for “Green peach aphid”, “ten insects of each species were placed onto an asphalt slab and directly” for “a bell pepper plant, infested with green peach aphids, was”, “sprayed for 2 seconds” for “sprayed”, “solutions.” for “solution until runoff.”

[5] = system: house cricket (Acheta domesticus); experiment: Direct spray contact toxicity, house cricket; conditions: ten insects on concrete slab, directly sprayed for 2 seconds
Method: as §1, with “Brown stink bug and house cricket” for “Green peach aphid”, “tests, ten insects of each species were placed onto” for “tests,”, “concrete slab and directly” for “bell pepper plant, infested with green peach aphids, was”, “sprayed for 2 seconds” for “sprayed”, “solutions.” for “solution until runoff.”

[6] = system: longtail mealy bug (Pseudococcus longispinus); experiment: Spray to runoff of infested Euonymus leaves, longtail mealy bug; conditions: ten bugs on variegated Euonymus leaves sprayed until runoff, assessed after 24 hours
Method: Formulations of geraniol, cedar oil and mixtures thereof were evaluated for contact toxicity against the Lasius ant (Lasius niger), lady beetle (Harmonia axyridis), brown stink bug (Halyomorpha halys), green peach aphid (Myzus persicae), house cricket (Acheta domesticus) and longtail mealy bug (Pseudococcus longispinus). The plant oil test solutions were prepared by dissolving the appropriate amount of the plant oil(s) in deionized water containing 0.5% by weight sodium laureth sulfate, for example 4.4 grams of geraniol was dissolved in 1 liter of deioinized water containing 5 grams of sodium laureth sulfate to prepare a 0.44% test solution of geraniol. Each test solution was poured into a 16 ounce spray can, a valve was installed and the can was charged with carbon dioxide as the propellant. Direct spraying of the test substance onto insects was performed to determine the efficacy of each test solution as follows:
Longtail mealy bug test—In separate tests, ten longtail mealy bugs were established on several leaves of a variegated Euonymus plant, the infested leaves were sprayed with the appropriate test solution until runoff.

Which results are given for `CC(C)=CCC/C(C)=C/CO` [0.44% geraniol, trans-3,7-dimethyl-2,6-octadien-1-ol]?
Recovery from knockdown [1]: None; Time to 100% Knockdown [1]: No apparent; Time to 100% mortality [1]: 3 h; Recovery from knockdown [2]: None; Time to 100% Knockdown [2]: 20 s; Time to 100% mortality [2]: 90 s; Recovery from knockdown [3]: None; Time to 100% Knockdown [3]: 9 s; Time to 100% mortality [3]: 20 s; Recovery from knockdown [4]: None; Time to 100% Knockdown [4]: 20 s; Time to 100% mortality [4]: 60 s; Recovery from knockdown [5]: None; Time to 100% Knockdown [5]: 60 s; Time to 100% mortality [5]: 3 h; mortality at 24 hours [6]: 50% mortality at
